Laboratory results as given in the supplement of paper PMC10307832.

Experiments:
Test in all cases: relative viability (nuclei count vs DMSO), 5 days (fraction); higher = more cells survive
MK-8033 + Pemetrexed = compound: Cn1cc(-c2cnc3ccc4ccc(CS(=O)(=O)NCc5ccccn5)cc4c(=O)c3c2)cn1 [MK-8033] + Nc1nc2[nH]cc(CCc3ccc(C(=O)N[C@@H](CCC(=O)O)C(=O)O)cc3)c2c(=O)[nH]1 [Pemetrexed] (partner 0.2 µM)
How it was run: (§1)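 Dosing by pin tool came one day after lung cancer cell lines were seeded in 1536-well plates, using either one drug or a fixed anchor-drug dose plus five library-drug doses (not always all listed) in √10 steps. After 5 days, nuclei were counted on 4× images. Relative viability is treated-well nuclei count divided by vehicle-well nuclei count, and values are medians of duplicate plates.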

Irinotecan + Pemetrexed = compound: CCc1c2c(nc3ccc(OC(=O)N4CCC(N5CCCCC5)CC4)cc13)-c1cc3c(c(=O)n1C2)COC(=O)[C@]3(O)CC [Irinotecan] + Nc1nc2[nH]cc(CCc3ccc(C(=O)N[C@@H](CCC(=O)O)C(=O)O)cc3)c2c(=O)[nH]1 [Pemetrexed] (partner 0.2 µM)
How it was run: as §1

RU-SKI 43 + Luminespib = compound: CC[C@@H](C)CNCC(=O)N1CCC2=C([C@@H]1COC3=CC=CC(=C3)C)C=CS2 [RU-SKI 43] + CCNC(=O)c1noc(-c2cc(C(C)C)c(O)cc2O)c1-c1ccc(CN2CCOCC2)cc1 [Luminespib] (partner 0.01 µM)
How it was run: as §1

Irinotecan + Foretinib = compound: CCc1c2c(nc3ccc(OC(=O)N4CCC(N5CCCCC5)CC4)cc13)-c1cc3c(c(=O)n1C2)COC(=O)[C@]3(O)CC [Irinotecan] + COc1cc2c(Oc3ccc(NC(=O)C4(C(=O)Nc5ccc(F)cc5)CC4)cc3F)ccnc2cc1OCCCN1CCOCC1 [Foretinib] (partner 0.25 µM)
How it was run: as §1

Cell Line: UMC-11
- relative viability (MK-8033 + Pemetrexed; first compound 0.02 µM): 0.801
- relative viability (MK-8033 + Pemetrexed; first compound 0.06325 µM): 0.75
- relative viability (MK-8033 + Pemetrexed; first compound 0.2 µM): 0.66
- relative viability (MK-8033 + Pemetrexed; first compound 0.6325 µM): 0.815
- relative viability (MK-8033 + Pemetrexed; first compound 2 µM): 0.683
- relative viability (Irinotecan + Pemetrexed; first compound 0.6325 µM): 0.46
- relative viability (Irinotecan + Pemetrexed; first compound 2 µM): 0.436
- relative viability (Irinotecan + Pemetrexed; first compound 6.325 µM): 0.288
- relative viability (Irinotecan + Pemetrexed; first compound 20 µM): 0.228
- relative viability (RU-SKI 43 + Luminespib; first compound 0.1 µM): 1.13
- relative viability (RU-SKI 43 + Luminespib; first compound 0.3162 µM): 1.29
- relative viability (RU-SKI 43 + Luminespib; first compound 1 µM): 1
- relative viability (RU-SKI 43 + Luminespib; first compound 3.162 µM): 1.04
- relative viability (RU-SKI 43 + Luminespib; first compound 10 µM): 1.09
- relative viability (Irinotecan + Foretinib; first compound 0.6325 µM): 0.704
- relative viability (Irinotecan + Foretinib; first compound 2 µM): 0.518
- relative viability (Irinotecan + Foretinib; first compound 6.325 µM): 0.337
- relative viability (Irinotecan + Foretinib; first compound 20 µM): 0.237
